Experimental data from US9636418B2 (priority 2013, dated 2017).
Several values for one entry are separate records, joined by “and”; a condition that tells them apart may be missing. Identical values can stand only once. Like-named read-outs stand apart in the source and are kept apart here.

How the values were obtained:
Experiment in all cases: cell-based
hNav1.5 = hNav1.5 (Homo sapiens, UniProt Q14524); conditions: for IC50: PatchXpress, tonic block, read-out: PX hNav1.5 Tonic IC50
hNav1.4 [1] = target: T1, hNav1.4 (Homo sapiens, UniProt P35499); conditions: for IC50: PatchXpress, tonic block, read-out: PX hNav1.4 Tonic IC50
hNav1.7 = hNav1.7 (Homo sapiens, UniProt Q15858); type: cell-based; conditions: PatchXpress, tonic block; read-out: PX hNav1.7 Tonic IC50
hNav1.4 [2] = target: T1, hNav1.4; conditions: ratio of IonWorks Quattro IC50 values

Sequence of hNav1.7 (Q15858 whole entry): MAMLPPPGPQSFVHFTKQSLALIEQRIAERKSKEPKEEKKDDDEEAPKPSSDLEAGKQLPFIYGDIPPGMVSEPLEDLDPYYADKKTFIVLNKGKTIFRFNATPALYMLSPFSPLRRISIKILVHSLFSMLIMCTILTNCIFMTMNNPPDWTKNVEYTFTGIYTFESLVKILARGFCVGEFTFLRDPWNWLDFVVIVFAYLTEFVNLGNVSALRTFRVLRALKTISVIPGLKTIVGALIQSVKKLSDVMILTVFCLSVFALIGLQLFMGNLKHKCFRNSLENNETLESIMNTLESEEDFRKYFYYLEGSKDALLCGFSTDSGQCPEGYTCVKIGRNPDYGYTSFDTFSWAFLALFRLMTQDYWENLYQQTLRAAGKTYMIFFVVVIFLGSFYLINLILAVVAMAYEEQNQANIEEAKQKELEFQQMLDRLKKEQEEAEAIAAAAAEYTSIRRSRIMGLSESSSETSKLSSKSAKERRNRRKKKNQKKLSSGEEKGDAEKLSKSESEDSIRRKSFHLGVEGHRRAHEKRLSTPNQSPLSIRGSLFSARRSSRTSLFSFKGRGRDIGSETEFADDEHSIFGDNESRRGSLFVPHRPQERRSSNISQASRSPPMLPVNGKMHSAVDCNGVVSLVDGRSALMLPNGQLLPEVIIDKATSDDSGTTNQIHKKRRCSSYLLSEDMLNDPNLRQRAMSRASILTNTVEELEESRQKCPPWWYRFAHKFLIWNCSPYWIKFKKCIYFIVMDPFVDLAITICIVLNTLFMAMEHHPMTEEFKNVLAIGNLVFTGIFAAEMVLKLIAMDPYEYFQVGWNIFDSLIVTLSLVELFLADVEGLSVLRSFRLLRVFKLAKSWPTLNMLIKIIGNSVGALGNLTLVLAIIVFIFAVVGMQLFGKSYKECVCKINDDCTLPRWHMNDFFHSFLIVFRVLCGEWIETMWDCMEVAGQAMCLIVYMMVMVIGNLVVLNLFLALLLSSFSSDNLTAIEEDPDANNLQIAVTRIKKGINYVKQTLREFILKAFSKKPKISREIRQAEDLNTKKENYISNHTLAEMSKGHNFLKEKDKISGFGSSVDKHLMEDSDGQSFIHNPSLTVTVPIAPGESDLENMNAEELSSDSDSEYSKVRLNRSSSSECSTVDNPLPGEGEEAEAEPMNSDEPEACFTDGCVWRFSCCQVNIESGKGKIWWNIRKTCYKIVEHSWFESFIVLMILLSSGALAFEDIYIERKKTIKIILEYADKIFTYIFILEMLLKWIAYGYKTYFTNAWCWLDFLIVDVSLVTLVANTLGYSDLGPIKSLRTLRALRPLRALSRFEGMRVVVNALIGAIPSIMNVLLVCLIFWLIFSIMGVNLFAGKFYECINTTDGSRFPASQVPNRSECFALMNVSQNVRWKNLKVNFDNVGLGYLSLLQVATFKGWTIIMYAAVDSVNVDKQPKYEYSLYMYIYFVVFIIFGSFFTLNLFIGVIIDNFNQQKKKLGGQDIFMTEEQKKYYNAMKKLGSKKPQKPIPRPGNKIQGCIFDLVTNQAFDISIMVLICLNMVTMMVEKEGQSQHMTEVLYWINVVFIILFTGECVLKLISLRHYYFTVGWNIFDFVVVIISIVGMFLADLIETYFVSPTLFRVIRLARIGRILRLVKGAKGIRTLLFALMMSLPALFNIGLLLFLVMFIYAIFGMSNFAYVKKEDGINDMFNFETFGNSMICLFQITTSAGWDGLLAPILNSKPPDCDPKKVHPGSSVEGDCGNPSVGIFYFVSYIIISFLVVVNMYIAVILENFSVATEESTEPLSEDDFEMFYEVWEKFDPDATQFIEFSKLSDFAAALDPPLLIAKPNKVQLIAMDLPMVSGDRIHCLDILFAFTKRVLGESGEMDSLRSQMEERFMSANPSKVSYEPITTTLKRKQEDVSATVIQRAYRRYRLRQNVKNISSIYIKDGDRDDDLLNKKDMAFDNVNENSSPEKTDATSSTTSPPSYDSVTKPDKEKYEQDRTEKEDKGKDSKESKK
Sequence of hNav1.5 (Q14524 whole entry): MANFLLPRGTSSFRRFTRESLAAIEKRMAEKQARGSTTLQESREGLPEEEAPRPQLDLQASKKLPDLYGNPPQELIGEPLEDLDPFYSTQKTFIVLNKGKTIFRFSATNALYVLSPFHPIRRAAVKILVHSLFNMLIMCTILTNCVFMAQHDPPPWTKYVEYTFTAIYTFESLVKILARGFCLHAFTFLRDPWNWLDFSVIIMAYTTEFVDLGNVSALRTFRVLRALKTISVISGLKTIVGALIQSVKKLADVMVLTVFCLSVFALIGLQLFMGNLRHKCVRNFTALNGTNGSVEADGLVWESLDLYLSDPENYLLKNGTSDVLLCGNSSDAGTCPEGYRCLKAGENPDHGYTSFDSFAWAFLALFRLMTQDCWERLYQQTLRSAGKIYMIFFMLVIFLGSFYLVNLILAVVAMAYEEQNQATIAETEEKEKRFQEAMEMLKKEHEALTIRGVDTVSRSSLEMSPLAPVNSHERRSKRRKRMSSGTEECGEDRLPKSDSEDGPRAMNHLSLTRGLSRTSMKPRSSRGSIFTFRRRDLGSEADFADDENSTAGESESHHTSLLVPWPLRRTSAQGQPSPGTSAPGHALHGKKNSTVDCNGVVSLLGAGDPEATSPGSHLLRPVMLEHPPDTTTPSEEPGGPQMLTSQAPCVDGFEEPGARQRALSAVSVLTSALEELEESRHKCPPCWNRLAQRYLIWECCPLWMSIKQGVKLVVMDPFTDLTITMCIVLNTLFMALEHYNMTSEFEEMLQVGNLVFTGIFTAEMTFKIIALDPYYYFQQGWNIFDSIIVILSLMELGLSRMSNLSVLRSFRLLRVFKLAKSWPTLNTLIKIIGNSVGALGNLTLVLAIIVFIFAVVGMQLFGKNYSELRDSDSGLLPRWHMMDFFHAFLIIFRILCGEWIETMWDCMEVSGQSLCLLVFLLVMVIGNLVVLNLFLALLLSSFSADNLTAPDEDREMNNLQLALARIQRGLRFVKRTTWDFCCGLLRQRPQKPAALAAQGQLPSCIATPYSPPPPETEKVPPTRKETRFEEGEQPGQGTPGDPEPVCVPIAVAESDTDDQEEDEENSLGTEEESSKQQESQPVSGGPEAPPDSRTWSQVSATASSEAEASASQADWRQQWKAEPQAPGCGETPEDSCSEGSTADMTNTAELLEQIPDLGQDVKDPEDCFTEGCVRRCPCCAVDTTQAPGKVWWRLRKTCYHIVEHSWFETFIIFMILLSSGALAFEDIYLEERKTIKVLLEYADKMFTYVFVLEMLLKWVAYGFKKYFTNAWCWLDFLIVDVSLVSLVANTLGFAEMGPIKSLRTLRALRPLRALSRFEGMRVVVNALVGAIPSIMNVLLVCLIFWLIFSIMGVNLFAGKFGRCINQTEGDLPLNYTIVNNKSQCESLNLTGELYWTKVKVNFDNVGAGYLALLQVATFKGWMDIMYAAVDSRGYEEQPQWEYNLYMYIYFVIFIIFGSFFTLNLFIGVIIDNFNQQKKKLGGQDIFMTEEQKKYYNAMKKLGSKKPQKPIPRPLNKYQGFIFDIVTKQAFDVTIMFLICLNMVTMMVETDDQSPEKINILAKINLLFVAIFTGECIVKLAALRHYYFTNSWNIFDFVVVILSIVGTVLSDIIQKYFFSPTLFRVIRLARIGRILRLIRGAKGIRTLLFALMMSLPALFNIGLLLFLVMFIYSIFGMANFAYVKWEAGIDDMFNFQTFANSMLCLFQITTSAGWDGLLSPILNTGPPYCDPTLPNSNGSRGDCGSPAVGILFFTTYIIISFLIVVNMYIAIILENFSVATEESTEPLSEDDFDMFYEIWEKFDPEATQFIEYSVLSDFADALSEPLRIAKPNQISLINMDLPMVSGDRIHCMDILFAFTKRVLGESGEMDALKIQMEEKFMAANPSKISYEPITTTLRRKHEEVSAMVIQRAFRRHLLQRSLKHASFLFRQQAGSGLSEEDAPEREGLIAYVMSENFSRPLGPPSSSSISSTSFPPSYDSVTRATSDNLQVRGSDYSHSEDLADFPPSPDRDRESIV

Row | SMILES | IC50 (hNav1.5) | IC50 (hNav1.4 [1]) | IC50 (hNav1.7) [µM] | further results
1 | CCCC[C@@H]1NC(=O)[C@H](Cc2c[nH]c3ccccc23)NC(=O)[C@H](CCCCN)NC(=O)[C@H](CCC(N)=O)NC(=O)[C@@H](NC(=O)[C@@H](N)CCN=[N+]=[N-])CSSC[C@@H]2NC(=O)[C@@H]3CSSC[C@@H](C(=O)N[C@@H](CCCNC(=N)N)C(=O)N[C@@H](CCCCN)C(=O)N[C@H](C(=O)N[C@@H](Cc4c[nH]c5ccccc45)C(N)=O)[C@@H](C)CC)NC(=O)[C@H](Cc4c[nH]c5ccccc45)NC(=O)[C@H](CC(C)C)NC(=O)[C@H](CCCCN)NC(=O)[C@H](CSSC[C@H](NC(=O)[C@H]([C@@H](C)O)NC(=O)[C@H](Cc4c[nH]c5ccccc45)NC1=O)C(=O)N[C@@H](CC(=O)O)C(=O)N[C@@H](CO)C(=O)N[C@@H](CCCCN)C(=O)N[C@@H](CCCNC(=N)N)C(=O)N[C@@H](C)C(=O)N3)NC(=O)[C@H](CCC(=O)O)NC(=O)[C@H](CC(C)C)NC(=O)CNC(=O)[C@H](CCC(=O)O)NC2=O [compound 309] | 2.03 µM | 0.767 µM | 0.00321 | –
2 | C#CC[C@H](N)C(=O)N[C@@H](Cc1ccc(O)cc1)C(=O)N[C@H]1CSSC[C@@H]2NC(=O)[C@@H]3CSSC[C@@H](C(=O)N[C@@H](CCCNC(=N)N)C(=O)N[C@@H](CCCCN)C(=O)N[C@H](C(=O)N[C@@H](Cc4c[nH]c5ccccc45)C(N)=O)[C@@H](C)CC)NC(=O)[C@H](Cc4c[nH]c5ccccc45)NC(=O)[C@H](CC(C)C)NC(=O)[C@H](CCCCN)NC(=O)[C@H](CSSC[C@H](NC(=O)[C@H]([C@@H](C)O)NC(=O)[C@H](Cc4c[nH]c5ccccc45)NC(=O)[C@H](CCC)NC(=O)[C@H](Cc4c[nH]c5ccccc45)NC(=O)[C@H](CCCCN)NC(=O)[C@H](CCC(N)=O)NC1=O)C(=O)N[C@@H](CC(=O)O)C(=O)N[C@@H](CO)C(=O)N[C@@H](CCCCN)C(=O)N[C@@H](CCCNC(=N)N)C(=O)N[C@@H](C)C(=O)N3)NC(=O)[C@H](CCC(=O)O)NC(=O)[C@H](CC(C)C)NC(=O)CNC(=O)[C@H](CCC(=O)O)NC2=O [compound 300] | 5.3 µM | 0.967 µM | 0.000818 | –
3 | C#CC[C@H](N)C(=O)N[C@@H](Cc1ccc(O)cc1)C(=O)N[C@H]1CSSC[C@@H]2NC(=O)[C@@H]3CSSC[C@@H](C(=O)N[C@@H](CCCNC(=N)N)C(=O)N[C@@H](CCCCN)C(=O)N[C@@H](Cc4ccc(O)cc4)C(=O)N[C@H](C(N)=O)[C@@H](C)CC)NC(=O)[C@H](Cc4c[nH]c5ccccc45)NC(=O)[C@H](CC(C)C)NC(=O)[C@H](CCCCN)NC(=O)[C@H](CSSC[C@H](NC(=O)[C@H]([C@@H](C)O)NC(=O)[C@H](Cc4c[nH]c5ccccc45)NC(=O)[C@H](CCCC)NC(=O)[C@H](Cc4c[nH]c5ccccc45)NC(=O)[C@H](CCCCN)NC(=O)[C@H](CCC(N)=O)NC1=O)C(=O)N[C@@H](CC(=O)O)C(=O)N[C@@H](CO)C(=O)N[C@@H](CCCCN)C(=O)N[C@@H](CCCNC(=N)N)C(=O)N[C@@H](C)C(=O)N3)NC(=O)[C@H](CCC(=O)O)NC(=O)[C@H](CC(C)C)NC(=O)CNC(=O)[C@H](CCC(=O)O)NC2=O [compound 313] | 4.37 µM | 0.966 µM | 0.000427 | –
4 | C#CC[C@@H]1NC(=O)[C@H](CCCNC(=N)N)NC(=O)[C@H](CCCCN)NC(=O)[C@H](CO)NC(=O)[C@H](CC(=O)O)NC(=O)[C@@H]2CSSC[C@@H]3NC(=O)[C@H](CCCNC(=N)N)NC(=O)[C@H](CC(C)C)NC(=O)CNC(=O)[C@H](CCC(=O)O)NC(=O)[C@H](CSSC[C@H](NC(=O)[C@@H](N)Cc4ccc(O)cc4)C(=O)N[C@@H](CCC(N)=O)C(=O)N[C@@H](CCCCN)C(=O)N[C@@H](Cc4c[nH]c5ccccc45)C(=O)N[C@@H](CCCC)C(=O)N[C@@H](Cc4c[nH]c5ccccc45)C(=O)N[C@@H]([C@@H](C)O)C(=O)N2)NC(=O)[C@H](CSSC[C@@H](C(=O)N[C@@H](CCCNC(=N)N)C(=O)N[C@@H](CCCCN)C(=O)N[C@@H](CCC(=O)O)C(=O)N[C@H](C(N)=O)[C@@H](C)CC)NC(=O)[C@H](Cc2c[nH]c4ccccc24)NC(=O)[C@H](CC(C)C)NC(=O)[C@H](CCCCN)NC3=O)NC1=O [compound 331] | 3.51 µM | 0.105 µM | 0.000493 | –
5 | C#CC[C@H](N)C(=O)N[C@@H](Cc1ccc(O)cc1)C(=O)N[C@H]1CSSC[C@@H]2NC(=O)[C@@H]3CSSC[C@@H](C(=O)N[C@@H](CCCNC(=N)N)C(=O)N[C@@H](CCCCN)C(=O)N[C@H](C(=O)N[C@@H](Cc4c[nH]c5ccccc45)C(N)=O)[C@@H](C)CC)NC(=O)[C@H](Cc4c[nH]c5ccccc45)NC(=O)[C@H](CC(C)C)NC(=O)[C@H](CCCCN)NC(=O)[C@H](CSSC[C@H](NC(=O)[C@H]([C@@H](C)O)NC(=O)[C@H](Cc4c[nH]c5ccccc45)NC(=O)[C@H](Cc4ccccc4)NC(=O)[C@H](Cc4c[nH]c5ccccc45)NC(=O)[C@H](CCCCN)NC(=O)[C@H](CCC(N)=O)NC1=O)C(=O)N[C@@H](CC(=O)O)C(=O)N[C@@H](CO)C(=O)N[C@@H](CCCCN)C(=O)N[C@@H](CCCNC(=N)N)C(=O)N[C@@H](C)C(=O)N3)NC(=O)[C@H](CCC(=O)O)NC(=O)[C@H](CC(C)C)NC(=O)CNC(=O)[C@H](CCC(=O)O)NC2=O [compound 298] | 0.78 µM | 0.661 µM | 0.015 | Nav1.5/Nav1.7 (hNav1.5; ratio of PX tonic IC50 values): 52; Nav1.4/Nav1.7 (hNav1.4 [1]; ratio of PX tonic IC50 values): 44
6 | CCCC[C@@H]1NC(=O)[C@H](Cc2c[nH]c3ccccc23)NC(=O)[C@H](CCCCN)NC(=O)[C@H](CCC(N)=O)NC(=O)[C@@H](NC(=O)[C@@H](N)Cc2ccc(O)cc2)CSSC[C@@H]2NC(=O)[C@@H]3CSSC[C@@H](C(=O)N[C@@H](CCCNC(=N)N)C(=O)N[C@@H](CCCCN)C(=O)N[C@H](C(=O)N[C@H](C(N)=O)[C@@H](C)CC)[C@@H](C)CC)NC(=O)[C@H](Cc4c[nH]c5ccccc45)NC(=O)[C@H](CC(C)C)NC(=O)[C@H](CCCCN)NC(=O)[C@H](CSSC[C@H](NC(=O)[C@H]([C@@H](C)O)NC(=O)[C@H](Cc4c[nH]c5ccccc45)NC1=O)C(=O)N[C@@H](CC(=O)O)C(=O)N[C@@H](Cc1cn(CCCOCCOCCOCCOCCOCCOCCOCCOCCOCCOCCN)nn1)C(=O)N[C@@H](CCCCN)C(=O)N[C@@H](CCCNC(=N)N)C(=O)N[C@@H](C)C(=O)N3)NC(=O)[C@H](CCCNC(=N)N)NC(=O)[C@H](CC(C)C)NC(=O)CNC(=O)[C@H](CCC(=O)O)NC2=O [compound 256] | – | – | – | Nav1.5/Nav1.7 (hNav1.5; ratio of PX IC50 values): 200; Nav1.4/Nav1.7 (hNav1.4 [1]; ratio of PX IC50 values): 3; Nav1.4/Nav1.7 (hNav1.4 [2]): 4
7 | CCCC[C@@H]1NC(=O)[C@H](Cc2c[nH]c3ccccc23)NC(=O)[C@H](CCCCN)NC(=O)[C@H](CCC(N)=O)NC(=O)[C@@H](NC(=O)[C@H](Cc2ccc(O)cc2)NC(=O)[C@@H](N)CC(C)C)CSSC[C@@H]2NC(=O)[C@@H]3CSSC[C@@H](C(=O)N[C@@H](CCCNC(=N)N)C(=O)N[C@@H](CCCCN)C(=O)N[C@H](C(=O)N[C@H](C(N)=O)[C@@H](C)CC)[C@@H](C)CC)NC(=O)[C@H](Cc4c[nH]c5ccccc45)NC(=O)[C@H](CC(C)C)NC(=O)[C@H](CCCCN)NC(=O)[C@H](CSSC[C@H](NC(=O)[C@H]([C@@H](C)O)NC(=O)[C@H](Cc4c[nH]c5ccccc45)NC1=O)C(=O)N[C@@H](CC(=O)O)C(=O)N[C@@H](CO)C(=O)N[C@@H](CCCCN)C(=O)N[C@@H](CCCNC(=N)N)C(=O)N[C@@H](C)C(=O)N3)NC(=O)[C@H](CCCNC(=N)N)NC(=O)[C@H](CC(C)C)NC(=O)CNC(=O)[C@H](CCC(=O)O)NC2=O [compound 361] | – | – | – | Nav1.5/Nav1.7 (hNav1.5; ratio of PX IC50 values): 0; Nav1.4/Nav1.7 (hNav1.4 [1]; ratio of PX IC50 values): 0
8 | CSCC[C@@H]1NC(=O)[C@H](Cc2c[nH]c3ccccc23)NC(=O)[C@H](CCCCN)NC(=O)[C@H](CCC(N)=O)NC(=O)[C@@H](NC(=O)[C@@H](N)Cc2ccc(O)cc2)CSSC[C@@H]2NC(=O)[C@@H]3CSSC[C@@H](C(=O)N[C@@H](CCCCN)C(=O)N[C@@H](Cc4ccc(O)cc4)C(=O)N[C@@H](CC(N)=O)C(=O)N[C@@H](CC(C)C)C(N)=O)NC(=O)[C@H](Cc4c[nH]c5ccccc45)NC(=O)[C@H](CC(C)C)NC(=O)[C@H](CCC(=O)O)NC(=O)[C@H](CSSC[C@H](NC(=O)[C@H]([C@@H](C)O)NC(=O)[C@H](Cc4c[nH]c5ccccc45)NC1=O)C(=O)N[C@@H](CC(=O)O)C(=O)N[C@@H](CO)C(=O)N[C@@H](CCC(=O)O)C(=O)N[C@@H](CCCNC(=N)N)C(=O)N[C@@H](CCCCN)C(=O)N3)NC(=O)[C@H](C(C)C)NC(=O)[C@H](Cc1ccc(O)cc1)NC(=O)CNC(=O)[C@H](CCC(=O)O)NC2=O [compound 48] | – | – | – | Nav1.5/Nav1.7 (hNav1.5): 61; Nav1.4/Nav1.7 (hNav1.4 [1]): 3
9 | C#CC[C@H](N)C(=O)NCCCC[C@@H]1NC(=O)[C@H](CCCNC(=N)N)NC(=O)[C@H](CCCCN)NC(=O)[C@H](CO)NC(=O)[C@H](CC(=O)O)NC(=O)[C@@H]2CSSC[C@@H]3NC(=O)[C@H](CCCNC(=N)N)NC(=O)[C@H](CC(C)C)NC(=O)CNC(=O)[C@H](CCC(=O)O)NC(=O)[C@H](CSSC[C@H](NC(=O)[C@H](Cc4ccc(O)cc4)NC(=O)[C@@H](N)CC#N)C(=O)N[C@@H](CCC(N)=O)C(=O)N[C@@H](CCCCN)C(=O)N[C@@H](Cc4c[nH]c5ccccc45)C(=O)N[C@@H](CCCC)C(=O)N[C@@H](Cc4c[nH]c5ccccc45)C(=O)N[C@@H]([C@@H](C)O)C(=O)N2)NC(=O)[C@H](CSSC[C@@H](C(=O)N[C@@H](CCCNC(=N)N)C(=O)N[C@@H](CCCCN)C(=O)N[C@@H](CCC(=O)O)C(=O)N[C@H](C(N)=O)[C@@H](C)CC)NC(=O)[C@H](Cc2c[nH]c4ccccc24)NC(=O)[C@H](CC(C)C)NC(=O)[C@H](CCCCN)NC3=O)NC1=O [compound 392] | 0.92 µM and 1.45 µM and 2.16 µM | 0.0861 µM and 0.124 µM | – | –
